The values that follow come from US20250339531A1, “DUX4 POLYPEPTIDES AND NUCLEIC ACIDS FOR TREATING INFLAMMATORY AND AUTOIMMUNE CONDITIONS” (Fred Hutchinson Cancer Center, priority 2021, published 2025).

Type in all cases: cell-based, human
In one assay the test system is ISG induction by IFNG. Put plainly: RNA-seq of IFNG-induced genes in MB135 cells. To be noted: doxycycline + IFNG; for IFNG-induced genes whose induction was suppressed more than 2-fold (percent) / IFNG-induced genes whose induction was suppressed more than 4-fold (percent): genes induced by IFNG (log 2 fold-change >3). On the procedure:
RNA was extracted as described above from untreated, doxycycline-treated, IFNγ-treated, or doxycycline- and IFNγ-treated samples. RNA was submitted to the Fred Hutchinson Cancer Research Center Genomics Core for library preparation using the TruSeq3 Stranded mRNA kit (Illumina) followed by size and quality analysis by Tapestation (Agilent). Libraries were sequenced on a NextSeq P2-100 (Illumina).
Sequencing analysis was performed using R version 4.0.3 (R Core Team, 2020). Sequencing reads were trimmed using Trimmomatic (version 0.39) (Bolger et al., 2014, Trimmomatic: a flexible trimmer for Illumina sequence data. Bioinformatics 30, 2114-2120), and aligned to the Homo sapiens GRCh38 reference genome with the Rsubread aligner (Liao et al., 2019, The R package Rsubread is easier, faster, cheaper and better for alignment and quantification of RNA sequencing reads. Nucleic Acids Res 47, e47). Gene counts were analyzed using featureCounts (v2.0.1) (Liao et al., 2019, supra) and the Gencode v35 annotation file. Normalization and differential expression analysis were done with DESeq2 (v1.26.0) (Love et al., 2014, Moderated estimation of fold change and dispersion for RNA-seq data with DESeq2. Genome Biol 15, 550).

For a further assay, the system named is ZSCAN4. Put plainly: Activation of DUX4 target gene ZSCAN4, RT-qPCR. To be noted: MB135 cells ± doxycycline. On the procedure:
(§1) All myoblast experiments were conducted in immortalized MB135 or MB200 myoblast cell lines (isolated from a control or FSHD2 subject, respectively cultured in Ham's F-10 Nutrient Mix (Gibco) supplemented with 15% fetal bovine serum (Hyclone), 100 U/100 μg/ml penicillin/streptomycin (Gibco), 1 μM dexamethasone (Sigma), and 10 ng/ml recombinant human basic fibroblast growth factor (PeproTech). To differentiate the myoblasts to myotubes, media was changed to DMEM supplemented with 10 μg/ml insulin (Sigma) and 10 μg/ml transferrin (Sigma). Cell lines containing doxycycline-inducible transgenes were additionally cultured with 2 μg/mL puromycin (Sigma). Transgenes were induced with 1 μg/mL of doxycycline (Sigma) for 4 hours prior to other treatments for a total of 20 hrs. The Kitra-SRS cells (RRID:CVCL_YI69) were provided by Dr. H. Otani and Osaka University (Nakai et al., 2019) and were cultured in DMEM supplemented with 10% fetal bovine serum (Hyclone) and 100 U/100 μg/ml penicillin/streptomycin (Gibco). Biological replicates consisted of independent but parallel experiments, such as simultaneously stimulating three cell culture plates with IFNγ. Technical replicates consisted of repeat measurements of the same biological sample, such as loading the same biological sample in triplicate for analysis by RT-qPCR.
(§2) Myoblasts were transfected with either (final concentrations) 10 μM 2′,3′-cGAMP (Sigma Aldrich), 2 μg/mL poly(I:C) (Invitrogen), or 1 μg/mL 3′ppp-dsRNA RIG-I ligand (Dan Stetson Lab, UW) using Lipofectamine 2000 according to manufacturer's protocol, or were stimulated with 1000U IFNβ (PeproTech) or 200 ng/ml IFNγ (R+D Systems) by addition directly to cell culture medium. After 16 hours of immune stimulation, RNA was collected from cells using the NucleoSpin RNA Kit (Macherey-Nagel) according to manufacturer's instructions. RNA samples were quantified by nanodrop and 1 μg of RNA per sample was treated with DNase I Amplification Grade (Thermo Fisher), and then synthesized into cDNA using the Superscript IV First-Strand Synthesis System, including oligo dT primers (Invitrogen). qPCR was run in 384-well plates on an Applied Biosystems QuantStudio 6 Flex Real-Time PCR System (ABI) and analyzed in Microsoft Excel.
A general note: Quantitative PCR measures a nucleic acid by following its amplification.

The test system of assay [1] is interferon-stimulated genes IFIH1, ISG20, CXCL9, and CD74. Put plainly: IFNG induction of interferon-stimulated genes, RT-qPCR in MB135 cells with doxycycline-inducible transgenes. Conditions: for suppression of IFNG induction of ISGs (IFIH1, ISG20, CXCL9, CD74): MB135 cells, doxycycline-induced transgene, continuous protocol, IFNG 16 h. On the procedure: as §1, §2

A further assay concerns MEL375 cells. Put plainly: IFNG-induced MHC class I in MEL375 melanoma cells (immunoblot, FACS). On the procedure: Expression of DUX4-CTD fragment suppresses interferon-induced MHC Class I expression and requires intact (L)LxxL(L) motifs. Human melanoma MEL375 cells were transduced with doxycycline inducible vectors expressing the 3×Flag-nls-tagged DUX4 CTD-154-424 (iDUX4-CTD) (SEQ ID NOS: 8-9) or the similar constructs with a mutation in the first (L)LxxL(L) motif and a deletion of the second (L)LxxL(L) motif (iDUX4-mL1dL2) (SEQ ID NOS: 10-11). Cells were treated with doxycycline (1 μg/ml) for four hours followed by the addition of interferon-gamma treatment for 16 hrs (50 ng/ml).
On the technique in general: In western blotting, separated proteins are transferred to a membrane and probed.

[2] abbreviates: 113 genes induced by IFNG (log 2 fold-change >3).

Entries after “also recorded” stand apart in the source; their conditions may differ.

“longCTD: 3×FLAG tag and nls in frame with carboxyterminal 271 amino acids of DUX4 (aa154-424), SEQ ID NOS: 8-9”: in the assay with ISG induction by IFNG, the “IFNG-induced genes whose induction was suppressed more than 2-fold (percent)” value worked out at 90%. Moreover, in the assay on ISG induction by IFNG, the “IFNG-induced genes whose induction was suppressed more than 4-fold (percent)” value came out at 52%. The “transcriptional activation of DUX4 target gene ZSCAN4” value with ZSCAN4 is “transcriptionally silent”. Moreover, the “suppression of RNA induction of GBP1, IDO1, CXCL10 by IFNG” value in assay [1] (MB135-iDUX4-CTD cells used for STAT1 ChIP) is recorded as “robustly suppressed the RNA induction by IFNG”. Further, the “suppression of IFNG induction of ISGs (IFIH1, ISG20, CXCL9, CD74)” value is listed as “sufficient to block most or all ISG induction by IFNG; also recorded: suppresses three of the four IFNG-induced genes” in assay [1] and “equally suppressed activation of ISGs” in assay [1] (listed as iDUX4-CTD). Besides, the “MHC surface protein expression by FACS” value with MEL375 cells (MEL375 cells, doxycycline then IFNG) was “decreased MHC surface protein expression”. Besides, in the assay on MEL375 cells (doxycycline 1 μg/ml 4 h then IFNG 50 ng/ml 16 hrs), the “suppression of IFNG-induced MHC class I proteins in MEL375 cells” value is listed as “suppresses IFNG induction of MHC proteins”.

As to “DUX4: human DUX4 protein SEQ ID NO:3 expressed from doxycycline inducible codon altered transgene SEQ ID NO:2”, the “IFNG-induced genes whose induction was suppressed more than 2-fold (number)” value in the assay on ISG induction by IFNG (setting [2]) is on record as 102 genes. Moreover, in the assay with ISG induction by IFNG (setting [2]), the “IFNG-induced genes whose induction was suppressed more than 4-fold (number)” value is given as 76 genes. For the same substance, the “IFNG-induced genes whose induction was suppressed more than 2-fold (percent)” value with ISG induction by IFNG is on record as 90%. In addition, the “IFNG-induced genes whose induction was suppressed more than 4-fold (percent)” value in the assay on ISG induction by IFNG is 67%. The entries for the “transcriptional activation of DUX4 target gene ZSCAN4” value in the assay on ZSCAN4, with ZSCAN4 (listed as iDUX4-CA) and with ZSCAN4 (listed as wild-type DUX4) were “strongly induced”, “robust activator of its target gene ZSCAN4” and “Only the wild-type DUX4 shows transcriptional activation of its target gene”, respectively. The “suppression of IFNG induction of ISGs (IFIH1, ISG20, CXCL9, CD74)” value in assay [1] is “blocks induction of ISGs IFIH1 and ISG20 by IFNG and IFNB1; also recorded: robustly blocked”; in assay [1] (listed as iDUX4-CA), “suppresses IFNG induction of all for ISGs”. For the same substance, the “suppression of MHC class I proteins in MEL375 cells, pulse protocol” value in the assay on MEL375 cells (Mel375iDUX4) is reported as “prolonged suppression of MHC class I proteins in the MEL375 melanoma cell line”.
